In patent US20250282799A1, “SUBSTITUTED PYRIDO[4,3-d]PYRIMIDINES AS KRAS MODULATORS” (Alterome Therapeutics, Inc., priority 2023, published 2025):

Tests used:
[1] = system: KRAS G12V dependent lung adenocarcinoma cell line, NCI-H441; test: Cellular pERK (Thr202/Tyr204) FRET/HTRF assay; format: cell-based; settings: Homo sapiens
How it was run: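 NCI-H441 cells (KRAS G12V) plated overnight at 37 °C, then exposed to compounds for 1 hr at 37 °C, 5% CO2; DMSO as negative control. Lysates read by Eu-cryptate/d2 sandwich FRET (665 nm) for ERK1/2 phosphorylated at Thr202/Tyr204; IC50 from curve fit.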

[2] = biological target: KRAS (G12V)/CRAF (Homo sapiens (Human), UniProt P01116, G12V); test: TR-FRET biochemical KRAS:CRAF protein:protein interaction assay, KRAS (G12V); format: binding; settings: GMPPNP loaded Biotin-KRAS (G12V), FLAG CRAF RBD; read-out: TR-Fret_PPI KRAS (G12V)/CRAF IC50
Sequence of KRAS (G12V)/CRAF (P01116-2 other isoform, or with tags, fused parts or gaps G12V): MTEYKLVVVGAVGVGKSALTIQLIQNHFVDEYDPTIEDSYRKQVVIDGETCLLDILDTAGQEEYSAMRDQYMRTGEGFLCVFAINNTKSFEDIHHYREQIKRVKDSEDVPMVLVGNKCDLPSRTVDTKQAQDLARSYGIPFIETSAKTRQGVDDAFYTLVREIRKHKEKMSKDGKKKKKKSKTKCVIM
Protocol: (§1) The effect of test compounds on KRAS and CRAF protein: protein interaction (PPI) was measured by time resolved fluorescence resonance energy transfer (TR-FRET) Ras binding domain (RBD) assay, which uses a signal generated through fluorescent resonance energy transfer between a donor and an acceptor molecule when in close proximity to each other. Interference from buffer, media, etc. is reduced by dual-wavelength detection; the energy pulse from the excitation source is followed by a time delay, which allows interfering short-lived fluorescence to decay (Degorce et al. 2009).
(§2) The KRAS: CRAF PPI assay can be utilized to identify KRAS ‘ON’ state inhibitors, as the KRAS protein is loaded with GMPPNP (a non-hydrolyzable GTP analog), which represents the active KRAS ‘ON’ state. FLAG-tagged CRAF RBD binding to the GMPPNP loaded biotin-tagged KRAS will result in a fluorescence energy transfer from the donor (Tb-anti-FLAG, emission 620 nm) to the acceptor (SA-XL665, emission 665 nm). Disruption of KRAS and CRAF binding will reduce the TR-FRET signal.
(§3) Test compound was dissolved in DMSO to create a 1 mM stock solution. A 45 μL volume of stock solution was transferred to a 384well polypropylene plate. A 3fold, 10point dilution was performed by transferring 15 μL of test compound solution into 30 μL of DMSO.
(§4) Assay buffer A was prepared with […] Hepes, pH7.3, 0.002% Tween 20, 0.1% BSA, […] NaCl, 5 mM MgCl2, and 10 uM GMP-PNP. 4× KRAS Solution was prepared with 80 nM of Biotin-KRAS (G12D/V), GMPPNP loaded or Biotin-KRAS (WT), GMPPNP loaded protein in assay buffer A. 4× Raf RBD Solution was prepared with 400 nM FLAG CRAF RBD in assay buffer A. 2× Detection Mixture was prepared with 2 nM Tb-anti-FLAG antibody and 10 nM and 10 nM SA-XL665 in assay buffer A.
(§5) A volume of 100 nL of 100× test compound working solution or DMSO vehicle control solution was dispensed to each well (duplicate for each concentration) of a 384-well ProxiPlate Plus assay plate. A volume of 2.5 μL of 4× KRAS Solution was added to each well of the assay plate for a final concentration of 20 nM Biotin-KRAS (G12D/V),GMPPNP loaded or 20 nM Biotin-KRAS (WT), GMPPNP. For low control, add 2.5 μL of assay buffer (no KRAS protein). Pre-incubate assay plate for 30 minutes at room temperature. Following pre-incubation of test compound or DMSO with Biotin-KRAS (G12D/V),GMPPNP loaded or Biotin-KRAS (WT),GMPPNP, a volume of 2.5 μL of 4× FLAG cRAF RBD Solution was added to each well of the assay plate for a final concentration of 100 nM FLAG CRAF RBD. The assay plate was subjected to centrifuge at 1000 rpm for 1 minute and pre-incubate assay plate for 150 minutes at room temperature. Following the pre-incubation with FLAG cRAF RBD, a volume of 5 μl of 2× Detection Mixture was added to each well of the assay plate for a final concentration of 1 nM Tb-anti-FLAG and 5 nM SA-XL665. The assay plate was centrifuged at 1000 rpm for 1 minute and incubated for 90 minutes at room temperature. TR-FRET signal was measured on a BioTek Synergy Neo2 microplate reader (excitation at 340 nm, emission at 665 nn and 620 nm).
(§6) TR-FRET ratios were calculated by dividing the acceptor emission value (665 nm) by the donor emission value (620 nm) for each sample.
(§7) Percent inhibition was calculated by multiplying the normalized TR-FRET ratio by 100, where TR-FRET ratio^HIGH was the TR-FRET ratio obtained from wells with 1% DMSO and complete reaction mixture, TR-FRET ratio^LOW was the ratio obtained from wells with 1% DMSO and reaction mixture without KRAS protein and TR-FRET ratio^SAMPLE was the TR-FRET ratio from wells with test compound and complete reaction mixture. The IC50 values were calculated from normalized TR-FRET ratios with the Levenberg-Marquardt 4 parameter fitting procedure.
(§8) This assay quantifies the interaction of a KRAS mutant protein (e.g., G12V) with the CRAF Ras-binding domain (RBD). […]

[3] = biological target: KRAS (G12D)/CRAF (Homo sapiens (Human), UniProt P01116, G12D); test: TR-FRET biochemical KRAS:CRAF protein:protein interaction assay, KRAS (G12D); format: binding; settings: GMPPNP loaded Biotin-KRAS (G12D), FLAG CRAF RBD; read-out: TR-Fret_PPI KRAS (G12D)/CRAF IC50
Sequence of KRAS (G12D)/CRAF (P01116-2 other isoform, or with tags, fused parts or gaps G12D): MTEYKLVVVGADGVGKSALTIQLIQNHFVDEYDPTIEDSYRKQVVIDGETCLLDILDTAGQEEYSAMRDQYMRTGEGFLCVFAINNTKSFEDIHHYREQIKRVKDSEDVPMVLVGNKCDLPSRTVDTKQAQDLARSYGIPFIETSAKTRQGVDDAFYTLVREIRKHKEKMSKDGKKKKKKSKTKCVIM
Protocol: as §1, §2, §3, §4, §5, §6, §7, §8

[4] = NCI-H441, pERK HTRF, NCI-H441 cells (KRAS G12V)
[5] = NCI-H441, cellular pERK (Thr202/Tyr204) HTRF, NCI-H441 cells

| Compound | IC50 [1, 4] [nM] | IC50 [2] [nM] | IC50 [3] [nM] | IC50 [1, 5] [nM] |
| --- | --- | --- | --- | --- |
| [2H]C([2H])(Oc1nc(N2CCOC[C@H]3C[C@H]32)c2cnc(-c3cc(N)cc4cc(F)c(F)c(C#C)c34)c(F)c2n1)[C@@]12CCCN1C[C@H](F)C2 [Example 62, 4-(4-((1R,7S)-5-oxa-2-azabicyclo[5.1.0]octan-2-yl)-8-fluoro-2-(((2R,7aS)-2-fluorotetrahydro-1H-pyrrolizin-7a(5H)-yl)methoxy-d2)pyrido[4,3-d]pyrimidin-7-yl)-5-ethynyl-6,7-difluoronaphthalen-2-amine] | 50 to 500 | 443 | 62.6 |  |
| [2H]C([2H])(Oc1nc(N2CCOC[C@@H]3[C@@H](Cl)[C@@H]32)c2cnc(-c3cc(N)cc4ccc(F)c(C#C)c34)c(F)c2n1)[C@@]12CCCN1C[C@H](F)C2 [Example 249, 4-(4-((1R,7R,8R)-8-chloro-5-oxa-2-azabicyclo[5.1.0]octan-2-yl)-8-fluoro-2-(((2R,7aS)-2-fluorotetrahydro-1H-pyrrolizin-7a(5H)-yl)methoxy-d2)pyrido[4,3-d]pyrimidin-7-yl)-5-ethynyl-6-fluoronaphthalen-2-amine] |  | 3000 | 648 | < 50 |
| [2H]C([2H])(Oc1nc(N2CCCC[C@@H]3[C@H](F)[C@@H]32)c2cnc(-c3cc(N)cc4cc(F)c(F)c(C#C)c34)c(F)c2n1)[C@@]12CCCN1C[C@H](F)C2 [Example 14, 5-Ethynyl-6,7-difluoro-4-(8-fluoro-4-((1R,7S,8S)-8-fluoro-2-azabicyclo[5.1.0]octan-2-yl)-2-(((2R,7aS)-2-fluorotetrahydro-1H-pyrrolizin-7a(5H)-yl)methoxy-d2)pyrido[4,3-d]pyrimidin-7-yl)naphthalen-2-amine] | 500 to 10000 | ≥ 10000 | ≥ 10000 |  |
| [2H]C([2H])(Oc1nc(N2CCCO[C@H]3[C@H](Cl)[C@H]32)c2cnc(-c3cc(N)cc4ccc(F)c(C#C)c34)c(F)c2n1)[C@@]12CCCN1C[C@H](F)C2 [Example 316, 4-(4-((1R,7S,8R)-8-Chloro-2-oxa-6-azabicyclo[5.1.0]octan-6-yl)-8-fluoro-2-(((2R,7aS)-2-fluorotetrahydro-1H-pyrrolizin-7a(5H)-yl)methoxy-d2)pyrido[4,3-d]pyrimidin-7-yl)-5-ethynyl-6-fluoronaphthalen-2-amine] |  | 51.2 | 14.1 | < 50 |
| [2H]C([2H])(Oc1nc(N2CCCC[C@H]3C[C@H]32)c2cnc(-c3cc(N)cc4cc(F)c(F)c(C#C)c34)c(F)c2n1)[C@@]12CCCN1C[C@H](F)C2 [Example 8, 4-(4-((1R,7S)-2-azabicyclo[5.1.0]octan-2-yl)-8-fluoro-2-(((2R,7aS)-2-fluorotetrahydro-1H-pyrrolizin-7a(5H)-yl)methoxy-d2)pyrido[4,3-d]pyrimidin-7-yl)-5-ethynyl-6,7-difluoronaphthalen-2-amine] | < 50 | 213 | 27.5 |  |
| [2H]C([2H])(Oc1nc(N2CCCC[C@H]3[C@@H](Cl)[C@H]32)c2cnc(-c3cc(N)cc4ccc(F)c(C#C)c34)c(F)c2n1)[C@@]12CCCN1C[C@H](F)C2 [Example 344, 4-(4-((1S,7R,8R)-8-chloro-2-azabicyclo[5.1.0]octan-2-yl)-8-fluoro-2-(((2R,7aS)-2-fluorotetrahydro-1H-pyrrolizin-7a(5H)-yl)methoxy-d2)pyrido[4,3-d]pyrimidin-7-yl)-5-ethynyl-6-fluoronaphthalen-2-amine] |  | ≥ 10000 | 1930 | 500 to 10000 |
| [2H]C([2H])(Oc1nc(N2CCCC[C@@H]3[C@@H](F)[C@@H]32)c2cnc(-c3cc(N)cc4cc(F)c(F)c(C#C)c34)c(F)c2n1)[C@@]12CCCN1C[C@H](F)C2 [Example 15, 5-Ethynyl-6,7-difluoro-4-(8-fluoro-4-((1R,7S,8R)-8-fluoro-2-azabicyclo[5.1.0]octan-2-yl)-2-(((2R,7aS)-2-fluorotetrahydro-1H-pyrrolizin-7a(5H)-yl)methoxy-d2)pyrido[4,3-d]pyrimidin-7-yl)naphthalen-2-amine] | 500 to 10000 | ≥ 10000 | ≥ 10000 |  |
| [2H]C([2H])(Oc1nc(N2CC=CC[C@H]3[C@H](F)[C@H]32)c2cnc(-c3cc(N)cc4cc(F)c(F)c(C#C)c34)c(F)c2n1)[C@@]12CCCN1C[C@H](F)C2 [Example 137, 5-Ethynyl-6,7-difluoro-4-(8-fluoro-4-((1S,7R,8S)-8-fluoro-2-azabicyclo[5.1.0]oct-4-en-2-yl)-2-(((2R,7aS)-2-fluorotetrahydro-1H-pyrrolizin-7a(5H)-yl)methoxy-d2)pyrido[4,3-d]pyrimidin-7-yl)naphthalen-2-amine] |  | 155 | 27.4 | < 50 |
